Entries after “also recorded” stand apart in the source; their conditions may differ. Read-outs that look alike come from different tables or passages of the source.
Assays:
[1] = Phase 1 single ascending dose (SAD)/food-effect plasma pharmacokinetics; type: in vivo, human; conditions: for Cmax / Tmax / AUC(0-inf) / half-life: human, plasma, oral; for AUC(0-inf): read-out: AUC0-inf (mean)
Protocol: Part A was a single ascending dose cohort study in which healthy, young subjects (less than 65 years old) received one dose of study drug in the morning after an overnight fast. Cohort dosing started at 10 mg and increased to 30 mg, 90 mg, 180 mg, 450 mg, and 1120 mg in subsequent cohorts. Six drug-treated and two placebo-treated subjects were randomized in each cohort. A seventh cohort of six subjects each received a single 90 mg dose of drug 30 min. after a meal. Following completion of all safety assessments and blood draws for PK analyses, subjects were discharged on Day 3.
In Part A, blood draws for assessment of PK parameters occurred pre-dose and at 15, 30, 45, 60, and 90 minutes post dose as well as at 2, 3, 4, 8, 12, 24, 36, and 48 hours post dose. […] In Part B, blood samples for plasma PK analysis were taken on Day 1 at pre-dose and at 2 hours post-dose, on Day 3 at pre-dose and at 15, 30 and 45 minutes and 1, 2, 3, 4, 8, 12 and 24 hours post-dose, on Days 4, 6, 8 and 10 at pre-dose and at 1.5 hours post-dose and following the final dose on Day 14 at pre-dose and 15, 30 and 45 minutes and 1, 2, 4, 8, 12, 24, 36 and 48 hours post-dose.
This was assessed by analysis of variance (ANOVA) of log-transformed Cmax, AUC0-24, AUC0-48, and/or AUC0-inf, using a model with factors for treatment (fed status or age [young vs. elderly] status) and subject within sequence. Treatment mean differences and 90% confidence intervals of the log transformed PK parameters were back-transformed, to present the geometric least squares means ratios and 90% confidence limits.

[2] = Phase 1b/2a clinical trial (COG0102): safety and tolerability; type: in vivo, human; conditions: for Mild TEAEs-n (%) / Moderate TEAEs-n (%) / SAEs-n (%) / Severe TEAEs-n (%) / TEAEs-n (%): once daily 28 days
Protocol: Safety and pharmacokinetics were primary objectives of the study, with changes in molecular biomarkers and cognitive outcomes identified as an exploratory objective. […]
This trial (ClinicalTrials.gov NCT02907567) was a randomized, double-blind, placebo-controlled clinical trial in mild to moderate Alzheimer's patients (MMSE 18-26) (See FIG. 1 for clinical trial design). The trial was conducted at six sites in Australia. Patients were randomized into placebo (n=5) or CT1812-treated groups: 90 mg (n=4), 280 mg (n=5) or 560 mg (n=5) and treated once daily for 28 days. Clinical chemistry was done at Sydpath (Sydney, AU). Pharmacokinetics were done at CPR Pharma Services (Adelaide, AU). Cerebrospinal fluid samples were taken at screening and day 21-28 of treatment and aliquoted. Plasma samples were taken at screening or Day 1 (one sample) and day 14-28, then spun down to separate plasma and aliquoted. One set of CSF samples was analyzed for Alzheimer's disease biomarkers; protein measurements (Aβ42, A1340, total tau, tau phosphorylated at threonine 181 (phosphorylated tau), NFL and neurogranin) were performed using commercially available ELISA assays from Fujirebio according to the manufacturer's instructions (INNOTEST β-AMYLOID(1-42), INNOTEST β-AMYLOID(1-40), INNOTEST hTau Ag, INNOTEST PHOSPHO-TAU(181P), Uman Diagnostics NFL assay). Neurogranin was measured with a sandwich ELISA method using antibodies Ng2 and Ng22 developed at the University of Gotteborg (Kvartsberg et al. 2015). Identical aliquots of CSF, and plasma were analyzed for protein expression changes via LC/MSMS at Caprion (see below).

[3] = test system: hippocampal/cortical cultures; experiment: Neurogranin expression study in vitro; type: cell-based; conditions: Aβ42 oligomers 500 nM 1 hr, then CT1812 4.8 nM 24 hr; 21 DIV cultures
Protocol: Neurons were fixed in 3.75% formaldehyde and stained with full-length neurogranin (Abcam catalogue # ab23570, used in combination with novel Ng7 to detect full length neurogranin in Alzheimer's disease patient brain IP; Kvartsberg et al. 2015 Blennow lab), MAP2 (Millipore), and 4G8 (Biolegend) antibodies. Imaging was performed on Cellomics VX automated microscope with a 20×, 0.75 NA objective and analyzed using a compartmental analysis algorithm to measure staining in the nucleus versus cytoplasm.

[4] = 30 mg, single 30 mg, fasted (n = 6)
[5] = 90 mg, single 90 mg, fasted (n = 6)
[6] = 90 mg, single 90 mg, fed (n = 6)
[7] = 180 mg, single 180 mg, fasted (n = 6)
[8] = 450 mg, single 450 mg, fasted (n = 6)
[9] = 1120 mg, single 1120 mg, fasted (n = 6)
[10] = single 90 mg, geometric least-squares mean

CC(C)(C)Oc1cc(CCC(C)(C)N2Cc3ccc(S(C)(=O)=O)cc3C2)ccc1O [CT1812]
food effect on CT1812 exposure ([1]; 90 mg fed vs. fasted): not considered clinically significant; also recorded: no significant difference | Cmax and AUC / plasma concentration vs dose ([1]; SAD 10 mg to 1120 mg): dose proportional; also recorded: slightly greater than proportional with dose; also recorded: slightly greater than dose proportionally | Cmax ([1]; 10 mg, single 10 mg, fasted, Day 1 (n = 6)): 5.07 ng/mL | Tmax ([1]; 10 mg, single 10 mg, fasted, Day 1 (n = 6), read-out: Tmax (median)): 1.5 h | AUC(0-inf) ([1]; 10 mg, single 10 mg, fasted, Day 1, n = 5): 30.6 ng·h/mL | half-life ([1]; 10 mg, single 10 mg, fasted, Day 1, n = 5, read-out: t1/2 (mean) (converted)): 12 h | Cmax [1, 4]: 19.5 ng/mL | AUC(0-inf) [1, 4]: 77.2 ng·h/mL | Tmax ([1]; 30 mg, single 30 mg, fasted (n = 6), read-out: Tmax (median)): 0.88 h | half-life ([1]; 30 mg, single 30 mg, fasted (n = 6), read-out: t1/2 (mean) (converted)): 14 h | Cmax [1, 5]: 109 ng/mL | AUC(0-inf) [1, 5]: 305 ng·h/mL | Tmax ([1]; 90 mg, single 90 mg, fasted (n = 6), read-out: Tmax (median)): 1.25 h | half-life ([1]; 90 mg, single 90 mg, fasted (n = 6), read-out: t1/2 (mean) (converted)): 12.1 h | Cmax [1, 6]: 81.7 ng/mL | AUC(0-inf) [1, 6]: 261 ng·h/mL | Tmax ([1]; 90 mg, single 90 mg, fed (n = 6), read-out: Tmax (median)): 1.5 h | half-life ([1]; 90 mg, single 90 mg, fed (n = 6), read-out: t1/2 (mean) (converted)): 11.6 h | Cmax [1, 7]: 161 ng/mL | AUC(0-inf) [1, 7]: 478 ng·h/mL | Tmax ([1]; 180 mg, single 180 mg, fasted (n = 6), read-out: Tmax (median)): 1.25 h | half-life ([1]; 180 mg, single 180 mg, fasted (n = 6), read-out: t1/2 (mean) (converted)): 11.1 h | Cmax [1, 8]: 504 ng/mL | AUC(0-inf) [1, 8]: 1750 ng·h/mL | Tmax ([1]; 450 mg, single 450 mg, fasted (n = 6), read-out: Tmax (median)): 1.5 h | half-life ([1]; 450 mg, single 450 mg, fasted (n = 6), read-out: t1/2 (mean) (converted)): 12.2 h | Cmax [1, 9]: 1460 ng/mL | AUC(0-inf) [1, 9]: 6320 ng·h/mL | Tmax ([1]; 1120 mg, single 1120 mg, fasted (n = 6), read-out: Tmax (median)): 1.5 h | half-life ([1]; 1120 mg, single 1120 mg, fasted (n = 6), read-out: t1/2 (mean) (converted)): 11.8 h | Tmax ([1]; part A (SAD), 10-1120 mg, read-out: median Tmax in plasma, range over doses): 0.88 to 1.5 h | half-life ([1]; part A (SAD), read-out: apparent mean half-life, range over doses): 11.1 to 14 h | AUC0-48h lower under fed vs fasted conditions [1, 10]: ~20% | AUC0-inf lower under fed vs fasted conditions [1, 10]: ~20% | Cmax lower under fed vs fasted conditions [1, 10]: approximately 40% | Headache-n (%) ([2]; 90 mg (as in Table 3)): 1 (25%) n (%) | Lymphocytopenia-n (%) ([2]; 90 mg (as in Table 3)): 0 (0%) n (%) | Nausea-n (%) ([2]; 90 mg (as in Table 3)): 0 (0%) n (%) | Vomiting-n (%) ([2]; 90 mg (as in Table 3)): 0 (0%) n (%) | Mild TEAEs-n (%) ([2]; 90 mg (n = 4)): 4 (100%) n (%) | Moderate TEAEs-n (%) ([2]; 90 mg (n = 4)): 0 (0%) n (%) | SAEs-n (%) ([2]; 90 mg (n = 4)): 0 (0%) n (%) | Severe TEAEs-n (%) ([2]; 90 mg (n = 4)): 0 (0%) n (%) | TEAEs-n (%) ([2]; 90 mg (n = 4)): 3 (75%) n (%) | Headache-n (%) ([2]; 280 mg (as in Table 3)): 0 (0%) n (%) | Lymphocytopenia-n (%) ([2]; 280 mg (as in Table 3)): 0 (0%) n (%) | Nausea-n (%) ([2]; 280 mg (as in Table 3)): 0 (0%) n (%) | Vomiting-n (%) ([2]; 280 mg (as in Table 3)): 0 (0%) n (%) | Mild TEAEs-n (%) ([2]; 280 mg (n = 5)): 3 (60%) n (%) | Moderate TEAEs-n (%) ([2]; 280 mg (n = 5)): 1 (20%) n (%) | SAEs-n (%) ([2]; 280 mg (n = 5)): 0 (0%) n (%) | Severe TEAEs-n (%) ([2]; 280 mg (n = 5)): 0 (0%) n (%) | TEAEs-n (%) ([2]; 280 mg (n = 5)): 4 (80%) n (%) | Headache-n (%) ([2]; 560 mg (as in Table 3)): 2 (40%) n (%) | Nausea-n (%) ([2]; 560 mg (as in Table 3)): 2 (40%) n (%) | Vomiting-n (%) ([2]; 560 mg (as in Table 3)): 2 (40%) n (%) | Mild TEAEs-n (%) ([2]; 560 mg (n = 5)): 5 (100%) n (%) | Moderate TEAEs-n (%) ([2]; 560 mg (n = 5)): 3 (60%) n (%) | SAEs-n (%) ([2]; 560 mg (n = 5)): 0 (0%) n (%) | Severe TEAEs-n (%) ([2]; 560 mg (n = 5)): 0 (0%) n (%) | TEAEs-n (%) ([2]; 560 mg (n = 5)): 5 (100%) n (%) | safety and tolerability ([2]; 90, 280 and 560 mg once daily 28 days, mild to moderate Alzheimer's patients): generally safe and well tolerated | ALT ([2]; one participant at 560 mg, resolved by end of study, no increase in bilirubin): ~4.7 ×ULN | full length neurogranin protein expression in neurons [3]: restores neurogranin expression

— patent publication US20200338045A1, “ISOINDOLINE COMPOSITIONS AND METHODS FOR TREATING NEURODEGENERATIVE DISEASE” (priority 2017, published 2020)
